Target: T1, CPT-1a (carnitine palmitoyltransferase-1) (Mus musculus, UniProt P97742)
T1 sequence (P97742 2-773): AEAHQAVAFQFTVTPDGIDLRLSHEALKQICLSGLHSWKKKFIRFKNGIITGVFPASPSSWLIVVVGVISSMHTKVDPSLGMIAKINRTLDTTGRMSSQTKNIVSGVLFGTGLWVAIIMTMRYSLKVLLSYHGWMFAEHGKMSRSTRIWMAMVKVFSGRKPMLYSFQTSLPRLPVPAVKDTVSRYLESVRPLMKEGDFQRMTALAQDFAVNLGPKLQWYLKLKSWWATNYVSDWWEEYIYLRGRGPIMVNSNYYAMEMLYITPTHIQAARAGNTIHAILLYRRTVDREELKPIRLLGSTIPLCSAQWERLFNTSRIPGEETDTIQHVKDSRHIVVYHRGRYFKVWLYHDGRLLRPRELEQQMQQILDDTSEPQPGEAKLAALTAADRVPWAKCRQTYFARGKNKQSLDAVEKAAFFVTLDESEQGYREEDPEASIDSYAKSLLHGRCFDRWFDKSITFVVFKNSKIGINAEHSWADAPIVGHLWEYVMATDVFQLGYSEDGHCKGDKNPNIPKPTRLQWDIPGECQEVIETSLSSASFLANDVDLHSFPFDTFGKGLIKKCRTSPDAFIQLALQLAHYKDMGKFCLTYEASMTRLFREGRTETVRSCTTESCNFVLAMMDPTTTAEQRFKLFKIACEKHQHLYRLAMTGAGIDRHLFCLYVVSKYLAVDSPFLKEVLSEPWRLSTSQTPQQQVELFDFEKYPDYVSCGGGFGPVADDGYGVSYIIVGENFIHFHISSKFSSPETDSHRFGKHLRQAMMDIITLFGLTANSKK
Format: biochemical

CCOC(=O)[C@@]1(CCCCCCOc2ccc(Cl)cc2)CO1 [Eto, etomoxir]
palmitoyl-CoA-driven respiration in permeabilized mouse BMDMs pretreated with et: < 3 µM
